This passage reports IC50 results from publication PMC9862588, “The Bi-Functional Paxilline Enriched in Skin Secretion of Tree Frogs (Hyla japonica) Targets the KCNK18 and BKCa Channels” (Toxins, 2023).

In this test the target is T1, KCNK18 (Rattus norvegicus, UniProt Q6Q1P3).
T1 sequence (Q6Q1P3 1-405): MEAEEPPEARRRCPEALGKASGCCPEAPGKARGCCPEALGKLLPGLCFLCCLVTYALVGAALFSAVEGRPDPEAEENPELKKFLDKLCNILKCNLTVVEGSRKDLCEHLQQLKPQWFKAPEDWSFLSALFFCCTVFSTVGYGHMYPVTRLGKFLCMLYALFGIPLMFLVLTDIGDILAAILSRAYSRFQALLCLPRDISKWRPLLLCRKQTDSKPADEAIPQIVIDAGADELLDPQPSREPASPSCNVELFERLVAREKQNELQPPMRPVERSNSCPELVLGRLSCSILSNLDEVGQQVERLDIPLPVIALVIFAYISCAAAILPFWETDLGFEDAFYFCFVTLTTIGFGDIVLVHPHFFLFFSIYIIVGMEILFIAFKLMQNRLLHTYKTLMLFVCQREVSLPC
Kind of test: whole-cell patch clamp of transfected HEK293 cells, dose-response; loss of effect on F375 swap and F167A. Type of test: cell-based. A general note: The patch-clamp technique gives a direct electrical read-out from membranes.

`CC(C)(O)[C@H]1O[C@H]2CC[C@@]3(C)[C@@](O)(CC[C@H]4Cc5c([nH]c6ccccc56)[C@@]43C)C2=CC1=O` [PAX, Paxilline]: the IC50 (commonly the concentration that gives 50% inhibition) came out at 4.13 ± 0.04 µM.
